Test results published in ChEMBL document CHEMBL5346920, “Development of the "hidden" multi-target-directed ligands by AChE/BuChE for the treatment of Alzheimer's disease” (Eur J Med Chem, 2023).
Calls of active or inactive are those of the source. The rule behind the calls is not given here.

What was measured:
BV-2 [1] = test: (§1) Cytotoxicity against mouse BV-2 cells assessed as cell viability at 30 uM by CCK8 assay; type: toxicity, cell-based; conditions: bv-2, 30 µM
BV-2 [2] = test: Anti-inflammatory activity against LPS-stimulated mouse BV-2 cells assessed as inhibition of LPS-induced IL-6 production by measuring IL-6 level at 9 uM incubated for 24 hrs in presence of LPS (reference value: 1503.2 pg/ml); type: functional
BV-2 [3] = test: Anti-inflammatory activity against LPS-stimulated mouse BV-2 cells assessed as inhibition of LPS-induced IL-6 production by measuring IL-6 level at 3 uM incubated for 24 hrs in presence of LPS (reference value: 1503.2 pg/ml); type: functional
BV-2 [4] = test: Anti-inflammatory activity against LPS-stimulated mouse BV-2 cells assessed as inhibition of LPS-induced IL-6 production by measuring IL-6 level at 1 uM incubated for 24 hrs in presence of LPS (reference value: 1503.2 pg/ml); type: functional
BV-2 [5] = test: Anti-inflammatory activity against LPS-stimulated mouse BV-2 cells assessed as inhibition of LPS-induced IL-1 beta production by measuring IL-beta level at 9 uM incubated for 24 hrs in presence of LPS (reference value: 221.3 pg/ml); type: functional
BV-2 [6] = test: Anti-inflammatory activity against LPS-stimulated mouse BV-2 cells assessed as inhibition of LPS-induced IL-1 beta production by measuring IL-beta level at 3 uM incubated for 24 hrs in presence of LPS (reference value: 221.3 pg/ml); type: functional
BV-2 [7] = test: Anti-inflammatory activity against LPS-stimulated mouse BV-2 cells assessed as inhibition of LPS-induced IL-1 beta production by measuring IL-beta level at 1 uM incubated for 24 hrs in presence of LPS (reference value: 221.3 pg/ml); type: functional
[8] = target: T1, Amine oxidase [flavin-containing] A (Homo sapiens, UniProt P21397); test: Inhibition of human recombinant MAO-A expressed in baculovirus-infected BTI cells using kynuramine as substrate incubated for 30 mins by fluorescence based analysis
T1 sequence (P21397 whole entry): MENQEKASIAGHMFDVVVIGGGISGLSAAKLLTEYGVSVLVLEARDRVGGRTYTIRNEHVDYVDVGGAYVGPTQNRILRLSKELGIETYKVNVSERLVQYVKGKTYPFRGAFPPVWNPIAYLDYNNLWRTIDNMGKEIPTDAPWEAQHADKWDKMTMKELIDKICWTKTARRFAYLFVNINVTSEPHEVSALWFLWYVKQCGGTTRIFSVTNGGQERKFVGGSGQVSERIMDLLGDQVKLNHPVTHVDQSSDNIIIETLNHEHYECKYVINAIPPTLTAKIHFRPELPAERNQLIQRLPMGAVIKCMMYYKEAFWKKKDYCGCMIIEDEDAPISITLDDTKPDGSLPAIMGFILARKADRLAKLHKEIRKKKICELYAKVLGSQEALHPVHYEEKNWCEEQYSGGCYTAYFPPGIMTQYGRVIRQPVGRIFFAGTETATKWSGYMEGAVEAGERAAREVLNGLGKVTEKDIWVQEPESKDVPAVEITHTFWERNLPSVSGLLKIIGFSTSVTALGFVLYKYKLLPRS

[9] = target: T2, Amine oxidase [flavin-containing] B (Homo sapiens, UniProt P27338); test: Inhibition of human recombinant MAO-B expressed in baculovirus-infected BTI cells using kynuramine as substrate incubated for 30 mins by fluorescence based analysis
T2 sequence (P27338 whole entry): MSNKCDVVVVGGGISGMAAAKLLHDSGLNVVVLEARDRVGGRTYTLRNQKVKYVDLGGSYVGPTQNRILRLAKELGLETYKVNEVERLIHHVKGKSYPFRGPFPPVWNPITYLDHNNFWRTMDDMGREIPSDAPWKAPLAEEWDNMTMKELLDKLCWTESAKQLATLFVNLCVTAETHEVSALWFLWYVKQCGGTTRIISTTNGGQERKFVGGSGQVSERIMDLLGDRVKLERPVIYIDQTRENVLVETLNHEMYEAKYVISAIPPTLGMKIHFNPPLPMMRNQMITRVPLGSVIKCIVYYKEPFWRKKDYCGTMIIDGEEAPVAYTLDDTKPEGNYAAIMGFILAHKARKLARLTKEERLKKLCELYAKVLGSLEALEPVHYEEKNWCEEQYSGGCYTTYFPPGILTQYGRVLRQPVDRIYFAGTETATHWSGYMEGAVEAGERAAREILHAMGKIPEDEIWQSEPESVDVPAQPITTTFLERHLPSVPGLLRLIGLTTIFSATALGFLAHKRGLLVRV

Homo sapiens = species: Homo sapiens; test: Selectivity index, ratio of IC50 for inhibition of human recombinant MAO-A expressed in baculovirus-infected BTI cells to IC50 for inhibition of human recombinant MAO-B expressed in baculovirus-infected BTI cells
[10] = target: Amyloid-beta precursor protein (Homo sapiens) (UniProt P05067); test: Inhibition of self-induced Amyloid beta (1 to 42) (unknown origin) aggregation at 25 uM incubated for 24 hrs by thioflavin T-based fluorescence analysis
BV-2 [11] = test: Cytotoxicity against mouse BV-2 cells assessed as reduction in cell viability at 10 uM by CCK8 assay; type: toxicity, cell-based; conditions: bv-2, 10 µM
[12] = as §1; type: toxicity, cell-based; conditions: BV-2 cells, read-out: Activity
BV-2 [13] = test: Anti-inflammatory activity against LPS-stimulated mouse BV-2 cells assessed as inhibition of LPS-induced NO production incubated for 24 hrs in presence of LPS; type: functional, cell-based; conditions: dose 1-9 µM
PC-12 [14] = test: Cytotoxicity against rat PC-12 cells assessed as cell viability at 40 uM by CCK-8 assay; type: toxicity, cell-based; conditions: pc-12, 40 µM
PC-12 [15] = test: Neuroprotective activity against Amyloid beta(25 to 35)-induced cell injury in rat PC12 cells assessed as cell viability at 5 uM pretreated for 2 hrs followed by incubation with Abeta(25 to 35) for 24 hrs by CCK-8 assay (reference value: 41 to 58.6%); type: functional; conditions: time 26 hrs, read-out: Activity
PC-12 [16] = test: Neuroprotective activity against Amyloid beta(25 to 35)-induced cell injury in rat PC12 cells assessed as cell viability at 10 uM pretreated for 2 hrs followed by incubation with Abeta(25 to 35) for 24 hrs by CCK-8 assay (reference value: 41 to 58.6%); type: functional; conditions: time 26 hrs, read-out: Activity
PC-12 [17] = test: Neuroprotective activity against Amyloid beta(25 to 35)-induced cell injury in rat PC12 cells assessed as cell viability at 20 uM pretreated for 2 hrs followed by incubation with Abeta(25 to 35) for 24 hrs by CCK-8 assay (reference value: 41 to 58.6%); type: functional; conditions: time 26 hrs, read-out: Activity
[18] = Metal chelating activity assessed as compound-Cu2+ complex formation by measuring maximum absorption wavelength shift from 316 to 446 nm at 37.5 uM incubated for 30 mins in presence of CuCl2 by UV-Vis spectrometry
[19] = Metal chelating activity assessed as compound-Al3+ complex formation by measuring maximum absorption wavelength shift from 316 to 434 nm at 37.5 uM incubated for 30 mins in presence of AlCl3 by UV-Vis spectrometry
[20] = Metal chelating activity assessed as compound-Fe2+ complex formation at 37.5 uM incubated for 30 mins in presence of FeSO4 by UV-Vis spectrometry
[21] = Metal chelating activity assessed as compound-Zn2+ complex formation at 37.5 uM incubated for 30 mins in presence of ZnCl2 by UV-Vis spectrometry
[22] = Metal chelating activity assessed as compound-Cu2+ complex formation at stoichiometric ratio of 1:1 at 37.5 uM in presence of CuCl2 by UV-Vis spectrometry
[23] = Metal chelating activity assessed as compound-Cu2+ complex formation by measuring inhibition of Cu2+-induced amyloid beta (1 to 42) aggregation at 25 uM by thioflavin T-based fluorescence analysis
[24] = Metal chelating activity assessed as compound-Cu2+ complex formation by measuring small fiber aggregates incubated for 24 hrs by transmission electron microscopy
Acetylcholinesterase = Acetylcholinesterase (Electrophorus electricus, UniProt O42275); test: Inhibition of electric eel AChE using acetylthiocholine chloride as substrate by Ellman's method
[25] = target: Cholinesterase (Equus caballus) (UniProt P81908); test: Inhibition of equine serum BuChE using butyrylthiocholine chloride as substrate at 25 uM by Ellman's method; type: cell-free
BV-2 [26] = test: Anti-inflammatory activity against LPS-stimulated mouse BV-2 cells assessed as inhibition of LPS-induced IL-6 production incubated for 24 hrs in presence of LPS; type: functional, cell-based; conditions: dose 1-9 µM
BV-2 [27] = test: Anti-inflammatory activity against LPS-stimulated mouse BV-2 cells assessed as inhibition of LPS-induced IL-1 beta production incubated for 24 hrs in presence of LPS; type: functional, cell-based; conditions: dose 1-9 µM
[28] = Permeability of the compound at 100 ug/ml incubated for 18 hrs by PAMPA assay; type: ADME; conditions: dose 100 µg/ml, read-out: permeability
[29] = Stability of the compound in blank gastric juice assessed as parent compound remaining at 1 mg/ml measured after 8 hrs by UPLC-MS/MS analysis; type: ADME; conditions: read-out: Stability
[30] = Stability of the compound in artificial gastric juice assessed as parent compound remaining at 1 mg/ml measured after 8 hrs by UPLC-MS/MS analysis; type: ADME; conditions: read-out: Stability
[31] = Stability of the compound in blank intestinal juice assessed as parent compound remaining at 1 mg/ml measured after 8 hrs by UPLC-MS/MS analysis; type: ADME; conditions: read-out: Stability
[32] = Stability of the compound in artificial intestinal juice assessed as parent compound remaining at 1 mg/ml measured after 8 hrs by UPLC-MS/MS analysis; type: ADME; conditions: read-out: Stability
[33] = Stability of the compound in rat plasma assessed as parent compound remaining at 10 ug/ml measured after 3 hrs by UPLC-MS/MS analysis; type: ADME, cell-free; conditions: at 10 µg/mL, read-out: Stability
[34] = Stability of the compound in rat liver microsomes assessed as parent compound remaining at 10 ug/ml measured after 60 mins by UPLC-MS/MS analysis; type: ADME, Microsome; conditions: at 10 µg/mL, read-out: Stability
[35] = target: Cholinesterase (Equus caballus) (UniProt P81908); test: Reversible inhibition of equine serum BuChE assessed as enzyme activity using butyrylthiocholine chloride as substrate measured after dilution to 0.1XIC50 for 240 mins by Ellman's method; type: cell-free; design: scale not given: the % may be the effect or the level left
Danio rerio [36] = species: Danio rerio; test: Antialzheimer activity against AlCl3-induced Alzheimer's disease zebra fish model assessed as total distance moved at 8 uM treated for 24 hrs and measured after 24 hrs under light environment (reference value: 230 cm); type: functional; conditions: time 48 hrs
Danio rerio [37] = species: Danio rerio; test: Antialzheimer activity against AlCl3-induced Alzheimer's disease zebra fish model assessed as total distance moved at 8 uM treated for 24 hrs and measured after 24 hrs under dark environment (reference value: 312 cm); type: functional; conditions: time 48 hrs
Danio rerio [38] = species: Danio rerio; test: Antialzheimer activity against AlCl3-induced Alzheimer's disease zebra fish model assessed as total distance moved at 8 uM treated for 24 hrs and measured after 24 hrs under alternating light dark stimuli conditions (reference value: 543 cm); type: functional; conditions: time 48 hrs
Danio rerio [39] = species: Danio rerio; test: Neuroprotective activity against AlCl3-induced Alzheimer's disease zebra fish model assessed as inhibition of AlCl3-induced AChE activity at 8 uM treated for 24 hrs and measured after 24 hrs; type: functional, organism-based; conditions: time 48.0 hrs
Danio rerio [40] = species: Danio rerio; test: Neuroprotective activity against AlCl3-induced Alzheimer's disease zebra fish model assessed as increase in ACh content at 8 uM treated for 24 hrs and measured after 24 hrs; type: functional, organism-based; conditions: time 48.0 hrs

Chain of Cholinesterase (Equus caballus) (P81908 whole entry): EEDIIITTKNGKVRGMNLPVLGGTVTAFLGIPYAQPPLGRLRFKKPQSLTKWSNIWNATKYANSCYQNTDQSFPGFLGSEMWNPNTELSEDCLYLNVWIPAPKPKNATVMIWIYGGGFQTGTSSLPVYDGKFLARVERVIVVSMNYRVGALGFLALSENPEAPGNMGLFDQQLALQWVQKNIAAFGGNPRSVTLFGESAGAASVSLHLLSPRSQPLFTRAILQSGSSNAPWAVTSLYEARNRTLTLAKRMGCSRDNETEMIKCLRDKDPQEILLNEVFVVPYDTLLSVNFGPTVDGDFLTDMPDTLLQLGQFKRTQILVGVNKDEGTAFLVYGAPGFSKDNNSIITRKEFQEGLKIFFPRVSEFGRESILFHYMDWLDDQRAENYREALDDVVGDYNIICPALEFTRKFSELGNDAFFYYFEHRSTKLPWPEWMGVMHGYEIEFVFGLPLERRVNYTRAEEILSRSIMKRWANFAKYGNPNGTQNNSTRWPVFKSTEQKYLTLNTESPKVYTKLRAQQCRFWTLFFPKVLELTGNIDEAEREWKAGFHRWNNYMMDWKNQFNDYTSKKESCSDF
Chain of Acetylcholinesterase (O42275 whole entry): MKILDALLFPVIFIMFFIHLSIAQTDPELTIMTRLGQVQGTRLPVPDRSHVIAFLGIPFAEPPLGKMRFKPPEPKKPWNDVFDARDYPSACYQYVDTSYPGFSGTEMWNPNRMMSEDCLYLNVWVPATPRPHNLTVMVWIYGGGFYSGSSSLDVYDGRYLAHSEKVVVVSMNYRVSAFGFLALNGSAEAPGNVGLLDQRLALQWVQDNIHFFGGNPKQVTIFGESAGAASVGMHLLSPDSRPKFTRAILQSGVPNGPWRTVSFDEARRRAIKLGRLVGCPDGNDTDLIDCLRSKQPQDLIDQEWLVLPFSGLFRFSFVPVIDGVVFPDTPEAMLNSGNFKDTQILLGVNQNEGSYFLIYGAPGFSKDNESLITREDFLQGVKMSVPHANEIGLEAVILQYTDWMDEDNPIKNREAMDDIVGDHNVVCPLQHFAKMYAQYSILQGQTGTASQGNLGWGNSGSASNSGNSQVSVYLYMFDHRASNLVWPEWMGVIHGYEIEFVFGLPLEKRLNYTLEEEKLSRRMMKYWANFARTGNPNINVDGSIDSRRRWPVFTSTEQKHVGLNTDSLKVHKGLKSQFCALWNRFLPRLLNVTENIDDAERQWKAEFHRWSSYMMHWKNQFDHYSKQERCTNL
Chain of Amyloid-beta precursor protein (Homo sapiens) (P05067 whole entry): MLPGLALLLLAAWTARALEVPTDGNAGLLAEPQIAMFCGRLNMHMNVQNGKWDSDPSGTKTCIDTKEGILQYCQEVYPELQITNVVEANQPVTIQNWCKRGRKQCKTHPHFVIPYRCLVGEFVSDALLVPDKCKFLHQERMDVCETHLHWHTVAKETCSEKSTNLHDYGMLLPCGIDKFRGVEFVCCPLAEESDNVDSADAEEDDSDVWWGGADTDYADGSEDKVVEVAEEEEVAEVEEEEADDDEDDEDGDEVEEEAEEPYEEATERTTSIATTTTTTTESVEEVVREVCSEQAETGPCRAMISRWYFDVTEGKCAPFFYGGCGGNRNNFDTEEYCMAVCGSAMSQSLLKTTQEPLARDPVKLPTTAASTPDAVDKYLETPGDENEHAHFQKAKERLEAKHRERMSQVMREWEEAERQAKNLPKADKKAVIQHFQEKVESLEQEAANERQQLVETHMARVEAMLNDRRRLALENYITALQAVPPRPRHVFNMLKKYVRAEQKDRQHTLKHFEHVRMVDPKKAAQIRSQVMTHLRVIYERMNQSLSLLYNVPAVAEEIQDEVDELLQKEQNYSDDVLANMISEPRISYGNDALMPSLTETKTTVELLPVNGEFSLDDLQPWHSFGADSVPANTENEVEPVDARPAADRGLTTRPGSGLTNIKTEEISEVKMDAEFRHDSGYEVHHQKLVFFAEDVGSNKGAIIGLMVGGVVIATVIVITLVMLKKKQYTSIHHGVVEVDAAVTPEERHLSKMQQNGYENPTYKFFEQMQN

CC(C(=O)O)c1ccc(-c2ccccc2)c(F)c1 (configuration not stated) [FLURBIPROFEN]
Activity (BV-2 [1]): Non-Toxic
Activity (BV-2 [2]): 808.6 pg/mL
Activity (BV-2 [3]): 1096.7 pg/mL
Activity (BV-2 [4]): 1280.5 pg/mL
Activity (BV-2 [5]): 92.9 pg/mL
Activity (BV-2 [6]): 149.8 pg/mL
Activity (BV-2 [7]): 185.6 pg/mL

O=C(/C=C/c1ccc(F)cc1)c1ccccc1O
IC50 [8]: 38.3 µM
IC50 [9]: 670 nM
Ratio IC50 (Homo sapiens): 57.2
inhibition [10]: 76.9%
Activity (BV-2 [11]): Non-Toxic
viability at 30 µM [12]: 80.1%
Activity (BV-2 [13]): Dose-Dependent Effect
Activity (PC-12 [14]): Non-Toxic
viability at 5 µM (PC-12 [15]): 80.6%
viability at 10 µM (PC-12 [16]): 89.9%
viability at 20 µM (PC-12 [17]): 99.1%
Activity [18]: Active
Activity [19]: Active
Activity [20]: inactive
Activity [21]: inactive
Activity [22]: Active
inhibition [23]: 86.5%
Activity [24]: Active
IC50 (Acetylcholinesterase): 25.7 µM
inhibition [25]: 10.6%
Activity (BV-2 [26]): Dose-Dependent Effect
Activity (BV-2 [27]): Dose-Dependent Effect
Papp at 18 h, 100 ug/ml [28]: 11.5 ×10⁻⁶ cm/s
remaining at 8 h, 1 mg/ml [29]: 97%
remaining at 8 h, 1 mg/ml [30]: 99%
remaining at 8 h, 1 mg/ml [31]: 96%
remaining at 8 h, 1 mg/ml [32]: 96.5%
remaining at 3 h, 10 ug/ml [33]: 101%
remaining at 1 h, 10 ug/ml [34]: 97.2%

COc1cc2c(cc1OC)C(=O)C(CC1CCN(Cc3ccccc3)CC1)C2 (configuration not stated) [DONEPEZIL]
Activity [35]: 118%
Activity (Danio rerio [36]): 334 cm
Activity (Danio rerio [37]): 325 cm
Activity (Danio rerio [38]): 671 cm
Activity (Danio rerio [39]): Active
Activity (Danio rerio [40]): Active
